Reference: the supplement of paper PMC11061612

Assays:
Test in all cases: Bliss excess, mean over the matrix (fraction); higher = more synergy
DSH1 (Bladder Carcinoma) = test system: DSH1 (Bladder Carcinoma)
Procedure, shortened: (§1)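 Cell lines in DMEM/F12 or RPMI with 10% FBS were plated in 1536-well plates, held 24 hours at 37°C, 5% CO2, then given two-drug dose matrices for 72 hours (DMSO typically 0.2%). Viability was read by CellTiter-Glo 2.0 luminescence and scaled as inhibition from 0 (vehicle wells) to 1 (blank wells). Combination Emax is the second-highest inhibition in the matrix; Bliss excess is observed combination effect minus expected EA + EB − EA·EB, EA and EB being single-agent effects.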

[1] = test system: C3A (Hepatocellular Carcinoma)
Procedure, shortened: as §1

[2] = test system: 697 (B-Lymphoblastic Leukemia)
Procedure, shortened: as §1

ES7 (Ewing's Sarcoma) = test system: ES7 (Ewing's Sarcoma)
Procedure, shortened: as §1

[3] = test system: TE-5 (Esophageal Squamous Cell Carcinoma)
Procedure, shortened: as §1

CAL-78 (Chondrosarcoma) = test system: CAL-78 (Chondrosarcoma)
Procedure, shortened: as §1

SN12C (Kidney Carcinoma) = test system: SN12C (Kidney Carcinoma)
Procedure, shortened: as §1

[4] = test system: KARPAS-1106P (B-Cell Non-Hodgkin's Lymphoma)
Procedure, shortened: as §1

[5] = test system: MDA-MB-157 (Breast Carcinoma)
Procedure, shortened: as §1

[6] = test system: DMS-273 (Small Cell Lung Carcinoma)
Procedure, shortened: as §1

[7] = test system: OCI-AML2 (Acute Myeloid Leukemia)
Procedure, shortened: as §1

[8] = test system: SNU-C5 (Colorectal Carcinoma)
Procedure, shortened: as §1

SK-N-FI (Neuroblastoma) = test system: SK-N-FI (Neuroblastoma)
Procedure, shortened: as §1

[9] = test system: SW756 (Cervical Carcinoma)
Procedure, shortened: as §1

NCI-H2369 (Mesothelioma) = test system: NCI-H2369 (Mesothelioma)
Procedure, shortened: as §1

[10] = test system: KM-H2 (Hodgkin's Lymphoma)
Procedure, shortened: as §1

[11] = test system: TGBC24TKB (Biliary Tract Carcinoma)
Procedure, shortened: as §1

[12] = test system: SUIT-2 (Pancreatic Carcinoma)
Procedure, shortened: as §1

[13] = test system: CFPAC-1 (Pancreatic Carcinoma)
Procedure, shortened: as §1

NCI-H2595 (Mesothelioma) = test system: NCI-H2595 (Mesothelioma)
Procedure, shortened: as §1

Row | SMILES | Bliss excess (DSH1 (Bladder Carcinoma)) | Bliss excess [1] | Bliss excess [2] | Bliss excess (ES7 (Ewing's Sarcoma)) | Bliss excess [3] | Bliss excess (CAL-78 (Chondrosarcoma)) | Bliss excess (SN12C (Kidney Carcinoma)) | Bliss excess [4] | Bliss excess [5] | Bliss excess [6] | Bliss excess [7] | Bliss excess [8] | Bliss excess (SK-N-FI (Neuroblastoma)) | Bliss excess [9] | Bliss excess (NCI-H2369 (Mesothelioma)) | Bliss excess [10] | Bliss excess [11] | Bliss excess [12] | Bliss excess [13] | Bliss excess (NCI-H2595 (Mesothelioma))
1 | Cc1c2c(nn1C)CSCc1cc(n(C)n1)CSc1cc(c3ccccc3c1)OCCCc1c(C(=O)O)n(C)c3c-2c(Cl)ccc13 [AZD5991] + CC1(C)CCC(CN2CCN(c3ccc(C(=O)NS(=O)(=O)c4ccc(NCC5CCOCC5)c([N+](=O)[O-])c4)c(Oc4cnc5[nH]ccc5c4)c3)CC2)=C(c2ccc(Cl)cc2)C1 [Venetoclax] (first compound max 1 µM, 7x7, partner max 1 µM) | 0.0397 | -0.0519 | -0.0564 | 0.102 | 0.037 | -0.0118 | -0.0193 | -0.0146 | 0.004 | -0.0099 | 0.143 | -0.0164 | 0.034 | -0.0331 | -0.0027 | -0.0094 | -0.0051 | -0.0287 | -0.0112 | -0.0384
2 | Cn1cnc2c(F)c(Nc3ccc(Br)cc3Cl)c(C(=O)NOCCO)cc21 [Selumetinib] + CC(C)n1c(=O)n(C)c2cnc3cc(F)c(-c4ccc(OCCCN5CCCCC5)nc4)cc3c21 [AZD1390] (first compound max 10 µM, 7x7, partner max 0.3 µM) | -0.0002 | 0.0046 | -0.0227 | -0.0301 | -0.0317 | -0.0665 | -0.0313 | -0.0376 | -0.032 | -0.0103 | -0.0079 | -0.0283 | -0.0208 | -0.019 | -0.0442 | -0.027 | -0.109 | -0.0294 | -0.0627 | -0.0415
3 | Cc1c2c(nn1C)CSCc1cc(n(C)n1)CSc1cc(c3ccccc3c1)OCCCc1c(C(=O)O)n(C)c3c-2c(Cl)ccc13 [AZD5991] + C[C@@H](Nc1cc(F)cc(F)c1)c1cc(C(=O)N(C)C)cc2c(=O)cc(N3CCOCC3)oc12 [AZD8186] (first compound max 1 µM, 7x7, partner max 3 µM) | -0.0603 | -0.0375 | -0.0743 | 0.0995 | -0.0172 | -0.0799 | -0.0725 | 0.0154 | 0.0836 | -0.0094 | -0.0721 | 0.0464 | -0.024 | 0.0162 | -0.004 | -0.0338 | 0.0027 | -0.015 | -0.0077 | 0.0369
4 | NC1(C(=O)N[C@@H](CCO)c2ccc(Cl)cc2)CCN(c2ncnc3[nH]ccc23)CC1 [Capivasertib] + C[C@@H]1COCCN1C2=NC(=NC(=C2)C3(CC3)[S@](=N)(=O)C)C4=C5C=CNC5=NC=C4 [AZD6738] (first compound max 10 µM, 7x7, partner max 10 µM) | -0.064 | -0.0096 | -0.0173 | -0.055 | -0.0345 | -0.0695 | -0.0044 | -0.0661 | -0.0365 | -0.0377 | -0.0474 | -0.0645 | -0.0529 | 0.0407 | -0.0127 | -0.0181 | -0.0104 | -0.0351 | -0.0224 | -0.0114
5 | Cc1cc2ncnn2cc1Nc1ncc2c(n1)n(C1CCOCC1)c(=O)n2C [AZD7648] + C=CCn1c(=O)c2cnc(Nc3ccc(N4CCN(C)CC4)cc3)nc2n1-c1cccc(C(C)(C)O)n1 [AZD1775] (first compound max 10 µM, partner max 1 µM) | 0.0281 | 0.0187 | 0 | -0.0044 | -0.0386 | -0.0147 | -0.0188 | -0.0202 | 0.0003 | -0.0349 | -0.0039 | 0.0457 | -0.0415 | -0.0211 | 0.0034 | -0.0201 | 0.0098 | -0.0403 | 0.0525 | -0.0242
6 | Cc1c2c(nn1C)CSCc1cc(n(C)n1)CSc1cc(c3ccccc3c1)OCCCc1c(C(=O)O)n(C)c3c-2c(Cl)ccc13 [AZD5991] + C=CCn1c(=O)c2cnc(Nc3ccc(N4CCN(C)CC4)cc3)nc2n1-c1cccc(C(C)(C)O)n1 [AZD1775] (first compound max 1 µM, partner max 1 µM) | -0.0115 | 0.0084 | -0.0264 | 0.0155 | 0.0264 | -0.0193 | 0.0306 | -0.011 | 0.001 | -0.0476 | -0.0366 | 0.0145 | -0.0478 | -0.013 | 0.0049 | -0.0181 | -0.0375 | 0.0014 | 0.0535 | -0.0127
7 | CCN(CCO)CCCOc1ccc2c(Nc3cc(CC(=O)Nc4cccc(F)c4)[nH]n3)ncnc2c1 [AZD2811] + O=C(c1cc(Cc2n[nH]c(=O)c3ccccc23)ccc1F)N1CCN(C(=O)C2CC2)CC1 [Olaparib] (first compound max 1 µM, 7x7, partner max 10 µM) | 0.0082 | -0.0495 | 0.0165 | -0.0184 | -0.0181 | 0.0006 | 0.0151 | -0.0229 | 0.032 | -0.0044 | -0.0351 | -0.0041 | -0.0001 | -0.0232 | 0.0055 | 0.0789 | -0.0102 | -0.0254 | 0.0077 | 0.0072
8 | CC1(C)CCC(CN2CCN(c3ccc(C(=O)NS(=O)(=O)c4ccc(NCC5CCOCC5)c([N+](=O)[O-])c4)c(Oc4cnc5[nH]ccc5c4)c3)CC2)=C(c2ccc(Cl)cc2)C1 [Venetoclax] + C[C@@H]1COCCN1C2=NC(=NC(=C2)C3(CC3)[S@](=N)(=O)C)C4=C5C=CNC5=NC=C4 [AZD6738] (first compound max 1 µM, 7x7, partner max 10 µM) | -0.0662 | -0.0503 | 0.0052 | 0.0245 | -0.0623 | 0.0138 | -0.047 | -0.0213 | -0.0195 | -0.0779 | 0.0166 | -0.0289 | 0.0009 | -0.0249 | -0.0247 | 0.0384 | -0.0188 | -0.0491 | 0.015 | 0.0027
9 | CC(=O)c1c(C)c2cnc(Nc3ccc(N4CCNCC4)cn3)nc2n(C2CCCC2)c1=O [Palbociclib] + Cc1c2c(nn1C)CSCc1cc(n(C)n1)CSc1cc(c3ccccc3c1)OCCCc1c(C(=O)O)n(C)c3c-2c(Cl)ccc13 [AZD5991] (first compound max 10 µM, 7x7, partner max 1 µM) | -0.0748 | 0.0027 | -0.0709 | -0.005 | -0.0284 | -0.0395 | -0.0358 | -0.0645 | -0.0408 | -0.0565 | 0.004 | -0.0377 | -0.0412 | -0.0749 | -0.0593 | -0.0228 | 0.0597 | -0.014 | -0.0063 | -0.0622
10 | CC1(C)CCC(CN2CCN(c3ccc(C(=O)NS(=O)(=O)c4ccc(NCC5CCOCC5)c([N+](=O)[O-])c4)c(Oc4cnc5[nH]ccc5c4)c3)CC2)=C(c2ccc(Cl)cc2)C1 [Venetoclax] + C1CN(CCC1(C(=O)N[C@@H](CCO)C2=CC=C(C=C2)Cl)N)C3=NC=NC4=C3C=CN4 [Capivasertib] (first compound max 1 µM, 7x7, partner max 3 µM) | -0.0642 | -0.0621 | -0.0154 | -0.0178 | -0.0197 | -0.0387 | -0.0557 | -0.0409 | -0.0187 | 0.0443 | 0.0444 | -0.0069 | 0.0002 | -0.0171 | -0.0422 | -0.0178 | 0.0325 | -0.0663 | -0.0274 | -0.0465
11 | CN(C)CCCOc1ccc(-c2ccc3ncc4c(c3c2)n(C2CCOCC2)c(=O)n4C)cn1 [AZD0156] + C[C@@H]1COCCN1C2=NC(=NC(=C2)C3(CC3)[S@](=N)(=O)C)C4=C5C=CNC5=NC=C4 [AZD6738] (first compound max 1 µM, 7x7, partner max 10 µM) | 0.0773 | 0.0318 | 0.0085 | 0.0225 | -0.0609 | -0.0694 | -0.0795 | 0.0462 | -0.0103 | 0.0084 | -0.051 | 0.0298 | 0.0055 | -0.0006 | -0.0253 | 0.0658 | -0.0165 | 0.0103 | -0.0137 | -0.0438
12 | CC1(C)CCC(CN2CCN(c3ccc(C(=O)NS(=O)(=O)c4ccc(NCC5CCOCC5)c([N+](=O)[O-])c4)c(Oc4cnc5[nH]ccc5c4)c3)CC2)=C(c2ccc(Cl)cc2)C1 [Venetoclax] + CCN(CCO)CCCOc1ccc2c(Nc3cc(CC(=O)Nc4cccc(F)c4)[nH]n3)ncnc2c1 [AZD2811] (first compound max 1 µM, 7x7, partner max 1 µM) | -0.0142 | -0.0359 | 0.0078 | 0.0074 | -0.0318 | 0.0143 | -0.0267 | -0.0125 | 0.0119 | 0.0016 | 0.0892 | 0.0063 | -0.0456 | -0.0292 | -0.015 | 0.0106 | 0.005 | -0.0135 | -0.024 | -0.0146
